Results: patent US6686458B2, “Synthetic molecules that specifically react with target sequences” (The Regents of the University of California, priority 1997, dated 2004)

What was measured:
[1] = system: target sequence (SEQ ID NO. 1); assay: Fluorescence (quantum yield, excitation and emission maxima) of target sequence/biarsenical molecule complex; assay type: physicochemical
Procedure: Formation of target sequence/biarsenical molecule (III) complex. Biarsenical molecule (III) (3 μl of 1 mM solution in DMSO) was added to 100 μl of 25 μM target sequence (SEQ. ID NO. 1) in 25 mM phosphate, pH 7.4, 100 mM KCl, 1 mM mercaptoethanesulfonate. After 1.5 hours, the reaction mixture (at room temperature) was injected onto a Dionex IonPac NS1 reverse phase HPLC column, gradient 20% to 46% acetonitrile (0.1% TFA) from 3 to 17 minutes. The complex eluted at 14.7 minutes (Free target sequence elutes at 12.6 minutes.) Mass spectrum analysis indicated a molecular weight of 2414.99 Da and the calculated molecular weight for the 1:1 complex was 2415.33 Da.
Quantum yield of target sequence/biarsenical molecule(III) complex. Solutions of fluorescein in 0.1 N NaOH and of target sequence/biarsenical molecule(III) complex in 25 mM phosphate, pH 7.4 and 100 mM KCl were adjusted to equal absorbances (0.0388) at 499 nm. The ratio of the integrated emission (excitation at 499 nm) of target sequence/biarsenical molecule(III) complex relative to fluorescein was multiplied by 0.9, the quantum yield of fluorescein, giving a quantum yield 0.44 for the target sequence/biarsenical molecule (III) complex.
(§1) This complex has a fluorescence quantum yield of 0.44 with excitation maximum at 508 nm and emission maximum at 528 nm (FIG. 4). The complex was of sufficient stability to remain intact in the presence of up to 100 equivalents of 2,3 dimercapto-1-propanol (BAL). Incubations with BAL were done at room temperature for 15 minutes.
Formation of a complex with target sequence and the dichloro-derivative of the biarsenical molecule (III). Dichloro-derivative of the biarsenical molecule (III) (5 μl of 675 μm solution in DMSO was added to 100 μl of 25 μM target sequence (SEQ ID NO. 1) in 25 mM phosphate, pH 7.4, 100 mM KCl 1 mM mercaptoethanesulfonate. After 1.5 hours, the reaction mixture was injected onto a Dionex IonPac SN1 reverse phase HPLC column, gradient 20% to 46% acetonitrile (0.1% TFA) from 3 to 17 minutes. The complex eluted in two overlapping peaks of the same molecular weight at 16.1 and 16.4 minutes. (Free peptide elutes at 12.6 minutes.) Mass spectrum analysis indicated a molecular weight of 2484.80 Da compared to the calculated molecular weight of the 1:1 complex was 2484.22 Da.

[2] = system: target sequence (SEQ ID NO. 1); assay: Stability of biarsenical molecule (III)/target sequence complex to 2,3 dimercapto-1-propanol (BAL); assay type: physicochemical; conditions: room temperature, 15 minutes; for effect of BAL on complex: 100 nM complex
Procedure: as §1

[3] = molecular target: T1, cyan GFP-target sequence (SEQ ID NO. 4) fusion in HeLa cells (Aequorea victoria, UniProt P42212, F64L/M153T/N146I/N212K/S65T/V163A/Y66W); assay: Measurement of FRET in HeLa cells expressing cyan GFP-target sequence fusion; assay type: cell-based
T1 construct: expressed in transfected cells; host or cells: HeLa cells, pcDNA3 vector
From the text: Expression of Cyan GFP-target sequence fusion in HeLa cells. Using standard molecular biology techniques, the target sequence (SEQ ID NO. 4) (with the tryptophan in SEQ ID NO. 1 replaced by an alanine) was attached to cyan fluorescent protein (CFP). CFP is the Green Fluorescent Protein (GFP) of Aequorea victoria with the following additional mutations: F64L, S65T, Y66W, N146I, M153T, V163A, N212K. Miyawaki A., et al. Nature 388:882-7 (1997). Fusion of the target sequence to the C-terminus of cyan GFP was accomplished using a PCR primer. The PCR primer had the following oligonucleotide sequence 5′-CGGCAATTCTTAGGCCCTGGCGCAGCACTCCCTGCAGCAGGCCTCCCTGGCGGCGGCCTCGGCCTTGTACAGCTCGTCCATGCCC-3′ (SEQ ID NO. 2) encoding for the expression of the target sequence. It was inserted into the pcDNA3 vector (Invitrogen, Carlsbad, Calif.) using HindIII and EcoRl restriction sites. After amplification in DH5 bacteria, it was transfected (at 37° C.) into HeLa cells using the Lipofectin system from GibcoBRL.
Measurement of FRET in HeLa cells. Three days after transfection, a concentration of 1.0 μM biarsenical molecule(III) and 10.0 μM ethanedithiol was applied to the transfected cells. Fluorescence changes were observed using a 440DF20 filter (Omega Optical, Brattleboro, Vt.) and a 4% transmittance neutral density filter for excitation and 480DF30 and 635DF50 filters for emission.
HeLa cells expressing the fusion protein were contacted with biarsenical molecule (III) on a fluorescence microscope stage. […] Upon addition of 1.0 μM biarsenical molecule (III) mixed with 10 μM EDT to inhibit background staining, the intensity of fluorescence at 480 nm decreased as energy was transferred from the CFP to the biarsenical molecule (III) which had reacted with the target sequence. There was a corresponding increase in fluorescence in the 635 nm channel due to biarsenical molecule (III)/target sequence emission. Upon removal of the biarsenical molecule (III) solution, there was little change.

[4] = molecular target: T2, calmodulin+cys4 (Xenopus laevis, UniProt P0DP33, A11C/A2H/E12C/E7C/E8C); assay: Labeling of calmodulin+cys4 in transfected HeLa cells (fluorescence microscopy); assay type: cell-based
T2 construct: expressed in transfected cells; host or cells: HeLa cells, pcDNA3 vector
From the text: Four cysteines were introduced into the N-terminal α-helix of xenopus calmodulin as shown below:
The mutated calmodulin is referred to as calmodulin+cys4. The substitutions were generated by using as a PCR primer of the following oligonucleotide sequence 5′-CGCGGATCCGCCACCATGCATGACCAACTGACATGCTGCCAGATTTGCTGCTTCAAAGAAGCCTTCTCATTATTC-3′ (SEQ ID NO. 3) encoding for the expression of these substitutions. The nucleic acid sequence encoding the cysteine-substituted calmodulin was inserted into pcDNA3 vector (Invitrogen, Carlsbad, Calif.) using the BamHI and EcoRI restriction sites. After amplification in DH5 bacteria, the vector was transfected (at 37° C.) into HeLa cells using the Lipofectin system from GibcoBRL.
Three days after transfection, the cells were treated with 1 μM biarsenical molecule (III) and 10.0 μM EDT for one hour. […] These lightly stained cells may have expressed the calmodulin+cys4 polypeptide, but at lower levels than the bright cells. […] Removal of the 1.4 neutral density filter was required to see details of the staining of the untransfected cells which appeared to be mitochondrial.

[5] = Fluorescence of the free biarsenical molecule bonded to EDT; assay type: physicochemical; conditions: before reaction with target sequence
[6] = 1.0 μM biarsenical molecule (III) with 10 μM EDT, excitation 440 nm, transfected HeLa cells

SMILES	emission maximum ([1]; complex with target sequence)	excitation maximum ([1]; complex with target sequence)	red shift ([1]; dichloro-derivative compared with biarsenical molecule (III))	red shift of fluorescent signal relative to fluorescein ([1]; complex with target sequence)	quantum yield ([1]; complex with target sequence, 25 mM phosphate, pH 7.4, 100 mM KCl, excitation at 499 nm, relative to fluorescein)	effect of BAL on complex ([2]; 1 μM BAL)	effect of BAL on complex ([2]; 10 μM BAL)	effect of BAL on complex ([2]; 100 μM BAL)	BAL at which complex remains intact [2]	fluorescence in the 635 nm channel (complex emission) [3, 6]	intensity of fluorescence at 480 nm (CFP emission) [3, 6]	removal of biarsenical molecule from target sequence in cells (reversibility) ([3]; cells treated with 1 mM EDT)	fluorescence of untransfected cells relative to cells expressing the CFP-target sequence fusion ([3]; excitation 480 nm, signal at 535 nm, after subtraction of CFP signal)	fluorescence of transfected cells ([4]; 1 μM biarsenical molecule (III) and 10.0 μM EDT for one hour, HeLa cells transfected with calmodulin+cys4, 480 nm excitation, 535 nm emission)	fluorescence of untransfected cells ([4]; same concentrations of biarsenical molecule (III) and EDT, untransfected HeLa cells)	fluorescence of free molecule [5]	fluorescence of free molecule ([5]; listed as biarsenical molecule of formula (III))
O=C1OC2(c3ccccc31)c1cc(Cl)c(O)c([As]3SCCS3)c1Oc1c2cc(Cl)c(O)c1[As]1SCCS1 [2′,7′-dichloro-4′,5′-bis(2-arsa-1,3-dithiolan-2-yl)fluorescein]	538 nm	518 nm	10 nm	–	–	–	–	–	–	–	–	–	–	–	–	–	–
O=C1OC2(c3ccccc31)c1ccc(O)c([As]3SCCS3)c1Oc1c2ccc(O)c1[As]1SCCS1 [biarsenical molecule (III), 4′,5′-bis(2-arsa-1,3-dithiolan-2-yl)fluorescein]	528 nm	508 nm	–	about 20 nm	0.44	barely affected	barely affected	significant reduction in fluorescence	up to 100 equivalents	increase	decreased	fast but not complete	about 10%	bright fluorescence	only very light fluorescence	nonfluorescent	essentially completely nonfluorescent
